The text below walks through data of patent US8815845B2, “1,4-benzodiazepine-2,5-diones and related compounds with therapeutic properties” (The Regents of the University of Michigan, priority 2009, dated 2014).

The target in test [1] is ROCK-I (h, amino acids 17-535) (Homo sapiens (Human), UniProt Q13464). The test can be described thus: ROCK-I (h) inhibition assay. Format: biochemical. The conditions noted are these: read-out: ROCK1 IC50. As for the experimental part:
ROCK-I (h) Inhibition Assay:
In a final reaction volume of 25 μL, ROCK-I (h, amino acids 17-535) (5-10 mU) was incubated with 8 mM MOPS pH 7.0, 0.2 mM EDTA, 30 μM […], 10 mM magnesium acetate and [γ-^32P-ATP] (specific activity approx. 500 cpm/pmol, concentration as required). The reaction was initiated by the addition of the MgATP mix. After incubation for 40 minutes at room temperature, the reaction was stopped by the addition of 5 μL of a 3% phosphoric acid solution. 10 μL of the reaction was then spotted onto a P30 filtermat and washed three times for 5 minutes in 75 mM phosphoric acid and once in methanol prior to drying and scintillation counting.

Test [2] has as its target ROCK-II (h, amino acids 11-552) (Homo sapiens (Human), UniProt O75116). The experiment in a line: ROCK-II (h) inhibition assay. Format: biochemical. The conditions noted are these: read-out: ROCK2 IC50. As for the experimental part: ROCK-II (h) Inhibition Assay:
In a final reaction volume of 25 μL, ROCK-II (h, amino acids 11-552) (5-10 mU) was incubated with 50 mM Tris pH 7.5, 0.1 mM EGTA, 30 [μM […], 10 mM magnesium acetate and γ-^32P-ATP] (specific activity approx. 500 cpm/pmol, concentration as required). The reaction was initiated by the addition of the MgATP mix. After incubation for 40 minutes at room temperature, the reaction was stopped by the addition of 5 μL of a 3% phosphoric acid solution. 10 μL of the reaction was then spotted onto a P30 filter-mat and washed three times for 5 minutes in 75 mM phosphoric acid and once in methanol prior to drying and scintillation counting.

The structures appear in SMILES notation.

ROCK-I (h, amino acids 17-535), sequence (Q13464 17-535): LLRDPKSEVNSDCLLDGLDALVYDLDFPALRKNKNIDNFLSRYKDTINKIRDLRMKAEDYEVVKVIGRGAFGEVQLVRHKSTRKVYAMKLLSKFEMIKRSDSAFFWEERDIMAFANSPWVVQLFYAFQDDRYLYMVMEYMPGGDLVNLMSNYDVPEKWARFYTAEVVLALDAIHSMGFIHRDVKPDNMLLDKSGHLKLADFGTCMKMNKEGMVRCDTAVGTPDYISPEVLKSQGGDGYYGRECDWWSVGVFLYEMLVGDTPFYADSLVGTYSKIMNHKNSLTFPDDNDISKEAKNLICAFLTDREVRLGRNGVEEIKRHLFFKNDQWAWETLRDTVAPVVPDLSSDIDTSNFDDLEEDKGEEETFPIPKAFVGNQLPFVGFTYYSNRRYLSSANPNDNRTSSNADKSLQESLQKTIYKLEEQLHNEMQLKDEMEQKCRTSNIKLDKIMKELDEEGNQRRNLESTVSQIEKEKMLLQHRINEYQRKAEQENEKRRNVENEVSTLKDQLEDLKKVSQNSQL
ROCK-II (h, amino acids 11-552), sequence (O75116 11-552): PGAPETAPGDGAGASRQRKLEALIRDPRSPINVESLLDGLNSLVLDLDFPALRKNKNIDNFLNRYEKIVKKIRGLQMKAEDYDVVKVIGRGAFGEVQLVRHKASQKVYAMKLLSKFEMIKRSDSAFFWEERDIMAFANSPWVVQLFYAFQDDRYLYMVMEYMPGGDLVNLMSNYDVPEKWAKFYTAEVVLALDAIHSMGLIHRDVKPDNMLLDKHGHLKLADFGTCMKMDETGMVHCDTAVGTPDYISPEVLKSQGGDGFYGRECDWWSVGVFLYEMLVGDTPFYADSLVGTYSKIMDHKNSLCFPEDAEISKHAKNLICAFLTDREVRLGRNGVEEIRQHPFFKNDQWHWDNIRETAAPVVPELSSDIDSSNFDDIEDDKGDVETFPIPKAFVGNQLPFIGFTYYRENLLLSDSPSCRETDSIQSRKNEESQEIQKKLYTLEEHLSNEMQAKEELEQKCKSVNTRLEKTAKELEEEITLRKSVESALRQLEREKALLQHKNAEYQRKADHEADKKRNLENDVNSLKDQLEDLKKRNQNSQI

By IC50 is commonly meant the point on the concentration scale where inhibition reaches its midpoint. Take `CN1C(=O)[C@@H](Cc2ccc(-c3ccnc(N)c3)cc2)NC(=O)c2cc(Cl)ccc21` [Compound 2, (R)-3-(4-(2-aminopyridin-4-yl)benzyl)-7-chloro-1-methyl-3,4-dihydro-1H-benzo[e][1,4]diazepine-2,5-dione]: the IC50 in test [1] was above 10000 nM; in test [2], 7100 nM.
As for `COc1ccc2c(c1)C(=O)N[C@@H](Cc1ccc(-c3ccnc(N)c3)cc1)C(=O)N2C` [Compound 3, (S)-3-(4-(2-aminopyridin-4-yl)benzyl)-7-methoxy-1-methyl-3,4-dihydro-1H-benzo[e][1,4]diazepine-2,5-dione], the IC50 was above 10000 nM in test [1] and 2400 nM in test [2].
For the compound `CN1C(=O)[C@H](Cc2ccc(-c3ccnc4[nH]ccc34)cc2)NC(=O)c2cc(Cl)ccc21` [Compound 4, (S)-3-(4-(1H-pyrrolo[2,3-b]pyridin-4-yl)benzyl)-7-chloro-1-methyl-3,4-dihydro-1H-benzo[e][1,4]diazepine-2,5-dione], the values for the IC50 in test [1] and in test [2] were 5100 nM and 250 nM, respectively.
Take `CN1C(=O)[C@@H](Cc2ccc(-c3cn[nH]c3)cc2)NC(=O)c2cc(Cl)ccc21` [Compound 1, (R)-3-(4-(1H-pyrazol-4-yl)benzyl)-7-chloro-1-methyl-3,4-dihydro-1H-benzo[e][1,4]diazepine-2,5-dione]: the IC50 is above 30000 nM in test [1] and 1000 nM in test [2].
On the same counts, the results for `COc1ccc2c(c1)C(=O)N[C@@H](Cc1ccc(-c3ccnc4[nH]ccc34)cc1)C(=O)N2C` [Compound 5, (S)-3-(4-(1H-pyrrolo[2,3-b]pyridin-4-yl)benzyl)-7-methoxy-1-methyl-3,4-dihydro-1H-benzo[e][1,4]diazepine-2,5-dione] are 2800 nM and 200 nM.
